Patent US10028971B2, “Compositions and methods for treating psychiatric disorders” (GOSFORTH CENTRE (HOLDINGS) PTY LTD., priority 2008, dated 2018)

Experiments:
[1] = test system: individuals with sleep disorders; assay: Sleep disorders, clinical observation; type: in vivo, human; settings: person, chronic insomnia, restless legs; sodium valproate added to dexamphetamine 25 mg
[2] = test system: individual with a history of a head injury; assay: Head injury with acquired ADHD syndrome, clinical case; type: in vivo, human; settings: person
Description: A person, no history of ADHD in childhood. Involved in a serious motor vehicle accident the with a depressed skull fracture and frontal lobe involvement. Subsequent history consistent with a acquired syndrome of ADHD. Subsequent development of co-morbid diagnoses included in alcohol dependence, pathological gambling and major depression.

## CCCC(CCC)C(=O)O.[Na] [sodium valproate, sodium di-n-propylacetic acid]
[1]
  clinical outcome on sleep (case): less effort was required to initiate sleep
[2]; sodium valproate 150 mg added to dexamphetamine 50 mg
  clinical outcome (case): Improved social interaction and egocentric eye gaze
[2]; sodium valproate above 150 mg
  clinical outcome (case): loss of benefit
